Reference: PubChem BioAssay (NCI)
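96-well plates; 48 h exposure; 5 concentrations. Endpoints by linear interpolation between flanking doses. Not reached: highest tested concentration assigned. The concentration for full growth arrest is given as TGI.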

Assays:
Test in all cases: inhibition of tumour cell growth, NCI panel, 48 h
MALME-3M melanoma = tested on: MALME-3M melanoma
CCRF-CEM leukemia = tested on: CCRF-CEM leukemia
A498 renal = tested on: A498 renal
LOX IMVI melanoma = tested on: LOX IMVI melanoma
HCT-116 colon = tested on: HCT-116 colon
SW-620 colon = tested on: SW-620 colon
OVCAR-3 ovarian = tested on: OVCAR-3 ovarian
HL-60(TB) leukemia = tested on: HL-60(TB) leukemia
MDA-N = tested on: MDA-N
NCI-H460 lung = tested on: NCI-H460 lung
EKVX NSCLC = tested on: EKVX NSCLC
IGROV1 ovarian = tested on: IGROV1 ovarian
KM12 colon = tested on: KM12 colon
NCI-H226 lung = tested on: NCI-H226 lung
MDA-MB-435 = tested on: MDA-MB-435
M14 melanoma = tested on: M14 melanoma
COLO 205 colon = tested on: COLO 205 colon
U251 CNS = tested on: U251 CNS
DU-145 prostate = tested on: DU-145 prostate
ACHN renal = tested on: ACHN renal
A549 NSCLC = tested on: A549 NSCLC
UO-31 renal = tested on: UO-31 renal
MDA-MB-231 breast = tested on: MDA-MB-231 breast
HCT-15 colon = tested on: HCT-15 colon
K-562 leukemia = tested on: K-562 leukemia
OVCAR-8 ovarian = tested on: OVCAR-8 ovarian
TK-10 renal = tested on: TK-10 renal
HS 578T breast = tested on: HS 578T breast
RPMI-8226 leukemia = tested on: RPMI-8226 leukemia
OVCAR-5 ovarian = tested on: OVCAR-5 ovarian
HOP-92 NSCLC = tested on: HOP-92 NSCLC
SK-MEL-2 melanoma = tested on: SK-MEL-2 melanoma
SF-295 CNS = tested on: SF-295 CNS
SK-MEL-28 melanoma = tested on: SK-MEL-28 melanoma
MOLT-4 leukemia = tested on: MOLT-4 leukemia
CAKI-1 renal = tested on: CAKI-1 renal
NCI-H522 lung = tested on: NCI-H522 lung
MCF7 breast = tested on: MCF7 breast
NCI-H23 lung = tested on: NCI-H23 lung
SK-MEL-5 melanoma = tested on: SK-MEL-5 melanoma
NCI/ADR-RES ovarian = tested on: NCI/ADR-RES ovarian
T-47D breast = tested on: T-47D breast
PC-3 prostate = tested on: PC-3 prostate
SK-OV-3 ovarian = tested on: SK-OV-3 ovarian
OVCAR-4 ovarian = tested on: OVCAR-4 ovarian
SN12C renal = tested on: SN12C renal
HT29 colon = tested on: HT29 colon
BT-549 breast = tested on: BT-549 breast
UACC-257 melanoma = tested on: UACC-257 melanoma
HOP-62 NSCLC = tested on: HOP-62 NSCLC
SF-268 CNS = tested on: SF-268 CNS
UACC-62 melanoma = tested on: UACC-62 melanoma
RXF 393 renal = tested on: RXF 393 renal
SNB-19 CNS = tested on: SNB-19 CNS
SF-539 CNS = tested on: SF-539 CNS
786-0 renal = tested on: 786-0 renal
HCC-2998 colon = tested on: HCC-2998 colon
SNB-75 CNS = tested on: SNB-75 CNS
SR leukemia = tested on: SR leukemia

With Cc1ccc(NC(=O)C(Cc2c[nH]c3ccccc23)NC(=O)Oc2ccccc2)cc1C (centres undefined) the TGI (MALME-3M melanoma) was 99.5 µM, the TGI (CCRF-CEM leukemia) was > 100 µM and the TGI (A498 renal) was 88.4 µM. The TGI (LOX IMVI melanoma) was > 100 µM, the TGI (HCT-116 colon) was > 100 µM and the TGI (SW-620 colon) was > 100 µM. The TGI (OVCAR-3 ovarian) was > 100 µM, the TGI (HL-60(TB) leukemia) was > 100 µM and the TGI (MDA-N) was > 100 µM. The TGI (NCI-H460 lung) was > 100 µM, the TGI (EKVX NSCLC) was > 100 µM and the TGI (IGROV1 ovarian) was > 100 µM. For the same compound, the TGI (KM12 colon) was > 100 µM, the TGI (NCI-H226 lung) was > 100 µM and the TGI (MDA-MB-435) was > 100 µM. For the same compound, the TGI (M14 melanoma) was > 100 µM, the TGI (COLO 205 colon) was > 100 µM and the TGI (U251 CNS) was > 100 µM. The TGI (DU-145 prostate) was > 100 µM, the TGI (ACHN renal) was > 100 µM and the TGI (A549 NSCLC) was > 100 µM. The TGI (UO-31 renal) was > 100 µM, the TGI (MDA-MB-231 breast) was > 100 µM and the TGI (HCT-15 colon) was > 100 µM. For the same compound, the TGI (K-562 leukemia) was > 100 µM, the TGI (OVCAR-8 ovarian) was > 100 µM and the TGI (TK-10 renal) was 25.5 µM. For the same compound, the TGI (HS 578T breast) was > 100 µM, the TGI (RPMI-8226 leukemia) was 80.9 µM and the TGI (OVCAR-5 ovarian) was > 100 µM. The TGI (HOP-92 NSCLC) was > 100 µM, the TGI (SK-MEL-2 melanoma) was > 100 µM and the TGI (SF-295 CNS) was > 100 µM. For the same compound, the TGI (SK-MEL-28 melanoma) was > 100 µM, the TGI (MOLT-4 leukemia) was > 100 µM and the TGI (CAKI-1 renal) was > 100 µM. For the same compound, the TGI (NCI-H522 lung) was > 100 µM, the TGI (MCF7 breast) was > 100 µM and the TGI (NCI-H23 lung) was > 100 µM. The TGI (SK-MEL-5 melanoma) was > 100 µM, the TGI (NCI/ADR-RES ovarian) was > 100 µM and the TGI (T-47D breast) was > 100 µM. The TGI (PC-3 prostate) was > 100 µM, the TGI (SK-OV-3 ovarian) was > 100 µM and the TGI (OVCAR-4 ovarian) was > 100 µM. For the same compound, the TGI (SN12C renal) was > 100 µM, the TGI (HT29 colon) was > 100 µM and the TGI (BT-549 breast) was > 100 µM. The TGI (UACC-257 melanoma) was > 100 µM, the TGI (HOP-62 NSCLC) was > 100 µM and the TGI (SF-268 CNS) was > 100 µM. For the same compound, the TGI (UACC-62 melanoma) was > 100 µM, the TGI (RXF 393 renal) was > 100 µM and the TGI (SNB-19 CNS) was > 100 µM. For the same compound, the TGI (SF-539 CNS) was > 100 µM.
CCOC(=O)c1c(-c2ccc(Cl)cc2)c(C#N)c(=S)n(C2OC(COC(C)=O)C(OC(C)=O)C(OC(C)=O)C2OC(C)=O)c1-c1ccccc1 (centres undefined) was tested, and the TGI (MALME-3M melanoma) was > 100 µM, the TGI (CCRF-CEM leukemia) was > 100 µM and the TGI (LOX IMVI melanoma) was > 100 µM. For the same compound, the TGI (HCT-116 colon) was > 100 µM, the TGI (SW-620 colon) was > 100 µM and the TGI (OVCAR-3 ovarian) was > 100 µM. For the same compound, the TGI (HL-60(TB) leukemia) was > 100 µM, the TGI (MDA-N) was > 100 µM and the TGI (NCI-H460 lung) was > 100 µM. The TGI (IGROV1 ovarian) was > 100 µM, the TGI (KM12 colon) was > 100 µM and the TGI (MDA-MB-435) was > 100 µM. For the same compound, the TGI (M14 melanoma) was > 100 µM, the TGI (COLO 205 colon) was > 100 µM and the TGI (U251 CNS) was > 100 µM. The TGI (DU-145 prostate) was > 100 µM, the TGI (ACHN renal) was > 100 µM and the TGI (A549 NSCLC) was > 100 µM. The TGI (UO-31 renal) was > 100 µM, the TGI (MDA-MB-231 breast) was > 100 µM and the TGI (HCT-15 colon) was > 100 µM. The TGI (K-562 leukemia) was > 100 µM, the TGI (TK-10 renal) was > 100 µM and the TGI (786-0 renal) was > 100 µM. For the same compound, the TGI (HS 578T breast) was > 100 µM, the TGI (RPMI-8226 leukemia) was > 100 µM and the TGI (OVCAR-5 ovarian) was > 100 µM. The TGI (HOP-92 NSCLC) was 81.7 µM, the TGI (SK-MEL-2 melanoma) was > 100 µM and the TGI (SF-295 CNS) was > 100 µM. The TGI (SK-MEL-28 melanoma) was > 100 µM, the TGI (MOLT-4 leukemia) was > 100 µM and the TGI (CAKI-1 renal) was > 100 µM. The TGI (HCC-2998 colon) was > 100 µM, the TGI (SNB-75 CNS) was > 100 µM and the TGI (MCF7 breast) was > 100 µM. The TGI (NCI-H23 lung) was > 100 µM, the TGI (SK-MEL-5 melanoma) was > 100 µM and the TGI (NCI/ADR-RES ovarian) was > 100 µM. The TGI (T-47D breast) was > 100 µM, the TGI (PC-3 prostate) was > 100 µM and the TGI (SR leukemia) was > 100 µM. The TGI (SK-OV-3 ovarian) was > 100 µM, the TGI (OVCAR-4 ovarian) was > 100 µM and the TGI (SN12C renal) was > 100 µM. For the same compound, the TGI (HT29 colon) was > 100 µM, the TGI (BT-549 breast) was > 100 µM and the TGI (UACC-257 melanoma) was > 100 µM. For the same compound, the TGI (HOP-62 NSCLC) was > 100 µM, the TGI (SF-268 CNS) was > 100 µM and the TGI (UACC-62 melanoma) was > 100 µM. The TGI (RXF 393 renal) was > 100 µM, the TGI (SNB-19 CNS) was > 100 µM and the TGI (SF-539 CNS) was > 100 µM.
